Results taken from PubChem BioAssay AID1963986 (Molecular Pharmacology Branch, DTP, NCI, 2024).

System: 171881-019-R-J1-PDC tumor spheroid viability
Assay: Anticancer human tumor 171881-019-R-J1-PDC patient-derived invasive breast carcinoma cell line growth inhibition [PI3K]
Conditions: spheroids with HUVEC and MSC; for IC50: curve of first compound; for viability, T/C: stronger effect = lower value
In short: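 We assembled tumor spheroids that included a stromal compartment of HUVEC and MSCs, then exposed them to targeted agents alone and together with PI3K pathway inhibitors. Concentration series descended by half-log from clinically achievable Cmax levels. Viability served as the endpoint.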

[1] = second compound 0.0316 µM, first compound 0.0316 µM
[2] = second compound 0.0316 µM, first compound 0.1 µM
[3] = second compound 0.1 µM, first compound 0.0316 µM
[4] = second compound 0.1 µM, first compound 0.1 µM
[5] = second compound 0.316 µM, first compound 0.0316 µM
[6] = second compound 0.316 µM, first compound 0.1 µM
[7] = second compound 1 µM, first compound 0.0316 µM
[8] = second compound 1 µM, first compound 0.1 µM
[9] = second compound 3.16 µM, first compound 0.0316 µM
[10] = second compound 3.16 µM, first compound 0.1 µM
[11] = second compound 10 µM, first compound 0.0316 µM
[12] = second compound 10 µM, first compound 0.1 µM
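Note: spheroids exposed to compound for 7 days before viability read.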
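Throughout, for viability, T/C: 100% = DMSO vehicle-treated spheroids.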

## CC(=O)c1c(C)c2cnc(Nc3ccc(N4CCNCC4)cn3)nc2n(C2CCCC2)c1=O + CC(Nc1ncnc2nc[nH]c12)c1cc2cccc(Cl)c2c(=O)n1-c1ccccc1
Second compound 0.0316 µM
  IC50: > 0.1 µM
Second compound 0.1 µM
  IC50: > 0.1 µM
Second compound 0.316 µM
  IC50: > 0.1 µM
Second compound 1 µM
  IC50: > 0.1 µM
Second compound 3.16 µM
  IC50: > 0.1 µM
Second compound 10 µM
  IC50: > 0.1 µM
Second compound 0.0316 µM, first compound 0.000316 µM
  viability, T/C: 91.9%
Second compound 0.0316 µM, first compound 0.001 µM
  viability, T/C: 88%
Second compound 0.0316 µM, first compound 0.00316 µM
  viability, T/C: 93%
Second compound 0.0316 µM, first compound 0.01 µM
  viability, T/C: 90.6%
[1]
  viability, T/C: 102%
[2]
  viability, T/C: 92.9%
Second compound 0.1 µM, first compound 0.000316 µM
  viability, T/C: 99.9%
Second compound 0.1 µM, first compound 0.001 µM
  viability, T/C: 96.8%
Second compound 0.1 µM, first compound 0.00316 µM
  viability, T/C: 98.3%
Second compound 0.1 µM, first compound 0.01 µM
  viability, T/C: 91.7%
[3]
  viability, T/C: 97.6%
[4]
  viability, T/C: 88.7%
Second compound 0.316 µM, first compound 0.000316 µM
  viability, T/C: 91%
Second compound 0.316 µM, first compound 0.001 µM
  viability, T/C: 88.5%
Second compound 0.316 µM, first compound 0.00316 µM
  viability, T/C: 96%
Second compound 0.316 µM, first compound 0.01 µM
  viability, T/C: 107%
[5]
  viability, T/C: 106%
[6]
  viability, T/C: 87.8%
Second compound 1 µM, first compound 0.000316 µM
  viability, T/C: 104%
Second compound 1 µM, first compound 0.001 µM
  viability, T/C: 87.6%
Second compound 1 µM, first compound 0.00316 µM
  viability, T/C: 100%
Second compound 1 µM, first compound 0.01 µM
  viability, T/C: 94.9%
[7]
  viability, T/C: 102%
[8]
  viability, T/C: 82.2%
Second compound 3.16 µM, first compound 0.000316 µM
  viability, T/C: 94.2%
Second compound 3.16 µM, first compound 0.001 µM
  viability, T/C: 90.3%
Second compound 3.16 µM, first compound 0.00316 µM
  viability, T/C: 91.2%
Second compound 3.16 µM, first compound 0.01 µM
  viability, T/C: 93.2%
[9]
  viability, T/C: 103%
[10]
  viability, T/C: 79.1%
Second compound 10 µM, first compound 0.000316 µM
  viability, T/C: 62.4%
Second compound 10 µM, first compound 0.001 µM
  viability, T/C: 60.1%
Second compound 10 µM, first compound 0.00316 µM
  viability, T/C: 59.1%
Second compound 10 µM, first compound 0.01 µM
  viability, T/C: 63.8%
[11]
  viability, T/C: 64.9%
[12]
  viability, T/C: 56.9%

## CCCS(=O)(=O)Nc1ccc(F)c(C(=O)c2c[nH]c3ncc(-c4ccc(Cl)cc4)cc23)c1F + CC(Nc1ncnc2nc[nH]c12)c1cc2cccc(Cl)c2c(=O)n1-c1ccccc1
Second compound 0.0316 µM
  IC50: 5.73 µM
Second compound 0.1 µM
  IC50: 5.45 µM
Second compound 0.316 µM
  IC50: 5.38 µM
Second compound 1 µM
  IC50: 6 µM
Second compound 3.16 µM
  IC50: 6.06 µM
Second compound 10 µM
  IC50: 4.95 µM
[1]
  viability, T/C: 90.8%
[2]
  viability, T/C: 87.2%
Second compound 0.0316 µM, first compound 0.316 µM
  viability, T/C: 97.2%
Second compound 0.0316 µM, first compound 1 µM
  viability, T/C: 84.1%
Second compound 0.0316 µM, first compound 3.16 µM
  viability, T/C: 92.3%
Second compound 0.0316 µM, first compound 10 µM
  viability, T/C: 12.2%
[3]
  viability, T/C: 98.7%
[4]
  viability, T/C: 81.3%
Second compound 0.1 µM, first compound 0.316 µM
  viability, T/C: 95%
Second compound 0.1 µM, first compound 1 µM
  viability, T/C: 91.4%
Second compound 0.1 µM, first compound 3.16 µM
  viability, T/C: 83.3%
Second compound 0.1 µM, first compound 10 µM
  viability, T/C: 12.8%
[5]
  viability, T/C: 87.4%
[6]
  viability, T/C: 89.1%
Second compound 0.316 µM, first compound 0.316 µM
  viability, T/C: 103%
Second compound 0.316 µM, first compound 1 µM
  viability, T/C: 101%
Second compound 0.316 µM, first compound 3.16 µM
  viability, T/C: 83.2%
Second compound 0.316 µM, first compound 10 µM
  viability, T/C: 11.3%
[7]
  viability, T/C: 95.1%
[8]
  viability, T/C: 107%
Second compound 1 µM, first compound 0.316 µM
  viability, T/C: 106%
Second compound 1 µM, first compound 1 µM
  viability, T/C: 105%
Second compound 1 µM, first compound 3.16 µM
  viability, T/C: 97.7%
Second compound 1 µM, first compound 10 µM
  viability, T/C: 11.9%
[9]
  viability, T/C: 90.9%
[10]
  viability, T/C: 97%
Second compound 3.16 µM, first compound 0.316 µM
  viability, T/C: 104%
Second compound 3.16 µM, first compound 1 µM
  viability, T/C: 121%
Second compound 3.16 µM, first compound 3.16 µM
  viability, T/C: 103%
Second compound 3.16 µM, first compound 10 µM
  viability, T/C: 9.5%
[11]
  viability, T/C: 67.8%
[12]
  viability, T/C: 70.7%
Second compound 10 µM, first compound 0.316 µM
  viability, T/C: 77.2%
Second compound 10 µM, first compound 1 µM
  viability, T/C: 90.8%
Second compound 10 µM, first compound 3.16 µM
  viability, T/C: 82.2%
Second compound 10 µM, first compound 10 µM
  viability, T/C: 6.77%
